Data from patent publication US12077503B2, “Substituted cyclic amides and their use as herbicides” (FMC CORPORATION, priority 2015, dated 2024).

Legend:
Format in all cases: in vivo
[1] = system: barnyardgrass (Echinochloa crus-galli); experiment: Test C flooded paddy test; conditions: Flood, 0 is no effect, 100 is complete control
Text: (§1) Plant species in the flooded paddy test consisted of rice (Oryza sativa), sedge, umbrella (small-flower umbrella sedge, Cyperus difformis), ducksalad (Heteranthera limosa), and barnyardgrass (Echinochloa crus-galli) grown to the 2-leaf stage for testing. At time of treatment, test pots were flooded to 3 cm above the soil surface, treated by application of test compounds directly to the paddy water, and then maintained at that water depth for the duration of the test. Treated plants and controls were maintained in a greenhouse for 13 to 15 d, after which time all species were compared to controls and visually evaluated. Plant response ratings, summarized in Table C, are based on a scale of 0 to 100 where 0 is no effect and 100 is complete control. A dash (-) response means no test result.

[2] = system: rice (Oryza sativa); experiment: Test C flooded paddy test; conditions: Flood, 0 is no effect, 100 is complete control
Text: as §1

[3] = system: sedge, umbrella (small-flower umbrella sedge, Cyperus difformis); experiment: Test C flooded paddy test; conditions: Flood, 0 is no effect, 100 is complete control
Text: as §1

[4] = system: ducksalad (Heteranthera limosa); experiment: Test C flooded paddy test; conditions: Flood, 0 is no effect, 100 is complete control
Text: as §1

[5] = system: blackgrass (Alopecurus myosuroides); experiment: Test A postemergence
Outline: (§2)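 Seeds sprayed preemergence with a directed soil spray, or plants at 2 to 10 cm height and one- to two-leaf stage sprayed postemergence, with test chemicals in a non-phytotoxic solvent mixture containing surfactant, in loam soil–sand blend. Injury rated visually against untreated controls after about 10 d in greenhouse, 0 (no effect) to 100 (complete control).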

[6] = system: barnyardgrass (Echinochloa crus-galli); experiment: Test A postemergence
Outline: as §2

[7] = system: giant foxtail (Setaria faberii); experiment: Test A postemergence
Outline: as §2

[8] = system: ragweed (common ragweed, Ambrosia elatior); experiment: Test A postemergence
Outline: as §2

[9] = system: Kochia (Kochia scoparia); experiment: Test A postemergence
Outline: as §2

[10] = system: pigweed (Amaranthus retroflexus); experiment: Test A postemergence
Outline: as §2

[11] = system: corn (Zea mays); experiment: Test A postemergence
Outline: as §2

[12] = system: wheat (Triticum aestivum); experiment: Test A postemergence
Outline: as §2

[13] = system: Galium (catchweed bedstraw, Galium aparine); experiment: Test A postemergence
Outline: as §2

[14] = system: ryegrass, Italian (Italian ryegrass, Lolium multiflorum); experiment: Test A postemergence
Outline: as §2

[15] = system: barnyardgrass (Echinochloa crus-galli); experiment: Test A preemergence; conditions: Preemergence
Outline: as §2

[16] = system: giant foxtail (Setaria faberii); experiment: Test A preemergence; conditions: Preemergence
Outline: as §2

[17] = system: ragweed (common ragweed, Ambrosia elatior); experiment: Test A preemergence; conditions: Preemergence
Outline: as §2

[18] = system: Kochia (Kochia scoparia); experiment: Test A preemergence; conditions: Preemergence
Outline: as §2

[19] = system: pigweed (Amaranthus retroflexus); experiment: Test A preemergence; conditions: Preemergence
[20] = system: ryegrass, Italian (Italian ryegrass, Lolium multiflorum); experiment: Test A preemergence; conditions: Preemergence
Outline: as §2

[21] = system: rice (Oryra sativa); experiment: Test B flooded paddy test; conditions: Flood, 250 g ai/ha; 0 to 100 scale where 0 is no effect and 100 is complete control; 13 to 15 d
Outline: (§3)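 2-leaf plants; pots flooded 3 cm over soil; cpd added to paddy water; depth held; greenhouse 13–15 d; visual rating vs controls, 0 = no effect, 100 = complete control.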

[22] = system: barnyardgrass (Echinochloa crus-galli); experiment: Test B flooded paddy test; conditions: Flood, 250 g ai/ha; 0 to 100 scale where 0 is no effect and 100 is complete control; 13 to 15 d
Outline: as §3

[23] = system: sedge, umbrella (small-flower umbrella sedge, Cyperus difformis); experiment: Test B flooded paddy test; conditions: Flood, 250 g ai/ha; 0 to 100 scale where 0 is no effect and 100 is complete control; 13 to 15 d
Outline: as §3

[24] = system: ducksalad (Heteranthera limosa); experiment: Test B flooded paddy test; conditions: Flood, 250 g ai/ha; 0 to 100 scale where 0 is no effect and 100 is complete control; 13 to 15 d
Outline: as §3

[25] = 125 g ai/ha, postemergence, visual injury rating on 0 to 100 scale (0 no effect, 100 complete control), approx. 10 d
[26] = Postemergence, 500 g ai/ha, 0 to 100 scale where 0 is no effect and 100 is complete control
[27] = 125 g ai/ha, visual injury after approximately 10 d, 0 to 100 scale where 0 is no effect and 100 is complete control
[28] = 500 g ai/ha, visual injury approx. 10 d

O=C1NCC(c2cccc(F)c2F)C1C(=O)Nc1cccc(F)c1F (stereo not shown) [Compound 487]
Plant response rating (scale of 0 to 100), Barnyardgrass ([1]; 31 g ai/ha): 0
Plant response rating (scale of 0 to 100), Barnyardgrass ([1]; 62 g ai/ha): 15
Plant response rating (scale of 0 to 100), Barnyardgrass ([1]; 125 g ai/ha): 20
Plant response rating (scale of 0 to 100), Barnyardgrass ([1]; 250 g ai/ha): 65
Plant response rating (scale of 0 to 100), Rice ([2]; 31 g ai/ha): 0
Plant response rating (scale of 0 to 100), Rice ([2]; 62 g ai/ha): 0
Plant response rating (scale of 0 to 100), Rice ([2]; 125 g ai/ha): 0
Plant response rating (scale of 0 to 100), Rice ([2]; 250 g ai/ha): 0
Plant response rating (scale of 0 to 100), Sedge, Umbrella ([3]; 31 g ai/ha): 0
Plant response rating (scale of 0 to 100), Sedge, Umbrella ([3]; 62 g ai/ha): 0
Plant response rating (scale of 0 to 100), Sedge, Umbrella ([3]; 125 g ai/ha): 0
Plant response rating (scale of 0 to 100), Sedge, Umbrella ([3]; 250 g ai/ha): 0
Plant response rating (scale of 0 to 100), Ducksalad ([4]; 31 g ai/ha): 30
Plant response rating (scale of 0 to 100), Ducksalad ([4]; 62 g ai/ha): 45
Plant response rating (scale of 0 to 100), Ducksalad ([4]; 125 g ai/ha): 85
Plant response rating (scale of 0 to 100), Ducksalad ([4]; 250 g ai/ha): 100
Blackgrass plant response rating [5, 25]: 0
Plant response rating, Blackgrass [5, 26]: 30
Barnyardgrass plant response rating [6, 25]: 80
Plant response rating, Barnyardgrass [6, 26]: 90
Foxtail, Giant plant response rating [7, 25]: 80
Plant response rating, Foxtail, Giant [7, 26]: 90
Ragweed plant response rating [8, 25]: 0
Plant response rating, Ragweed [8, 26]: 0
Kochia plant response rating [9, 25]: 0
Plant response rating, Kochia [9, 26]: 30
Pigweed plant response rating [10, 25]: 0
Plant response rating, Pigweed [10, 26]: 20
Corn plant response rating [11, 25]: 0
Plant response rating, Corn [11, 26]: 20
Wheat plant response rating [12, 25]: 0
Plant response rating, Wheat [12, 26]: 20
Galium plant response rating [13, 25]: 0
Plant response rating, Galium [13, 26]: 0
Ryegrass, Italian plant response rating [14, 25]: 0
Plant response rating, Ryegrass, Italian [14, 26]: 20
Plant response rating, Barnyardgrass [15, 27]: 90
Barnyardgrass plant response rating (0 to 100 scale, 0 is no effect, 100 is complete control) [15, 28]: 90
Plant response rating, Foxtail, Giant [16, 27]: 90
Foxtail, Giant plant response rating (0 to 100 scale, 0 is no effect, 100 is complete control) [16, 28]: 90
Plant response rating, Ragweed [17, 27]: 30
Ragweed plant response rating (0 to 100 scale, 0 is no effect, 100 is complete control) [17, 28]: 30
Plant response rating, Kochia [18, 27]: 30
Kochia plant response rating (0 to 100 scale, 0 is no effect, 100 is complete control) [18, 28]: 60
Plant response rating, Pigweed [19, 27]: 0
Pigweed plant response rating (0 to 100 scale, 0 is no effect, 100 is complete control) [19, 28]: 30
Plant response rating, Ryegrass, Italian [20, 27]: 20
Ryegrass, Italian plant response rating (0 to 100 scale, 0 is no effect, 100 is complete control) [20, 28]: 40
Plant response rating, Rice [21]: 0
Plant response rating, Barnyardgrass [22]: 75
Plant response rating, Sedge, Umbrella [23]: 0
Plant response rating, Ducksalad [24]: 95
